Laboratory results taken from article PMC9870890 (Nature Communications, 2023).
Substitutions are numbered along the chain they refer to. Values joined by “and” are separate entries in the source; they are usually repeats but may differ in a detail not shown here. Identical values can stand only once.

Tests used:
M2R L129^34.51A mutant = target: T1, M2R L129^34.51A mutant (Homo sapiens, UniProt P08172, L129A); experiment: NanoBiT-GoA dissociation assay, L129A mutant M2R
T1 sequence (P08172 1-466 L129A): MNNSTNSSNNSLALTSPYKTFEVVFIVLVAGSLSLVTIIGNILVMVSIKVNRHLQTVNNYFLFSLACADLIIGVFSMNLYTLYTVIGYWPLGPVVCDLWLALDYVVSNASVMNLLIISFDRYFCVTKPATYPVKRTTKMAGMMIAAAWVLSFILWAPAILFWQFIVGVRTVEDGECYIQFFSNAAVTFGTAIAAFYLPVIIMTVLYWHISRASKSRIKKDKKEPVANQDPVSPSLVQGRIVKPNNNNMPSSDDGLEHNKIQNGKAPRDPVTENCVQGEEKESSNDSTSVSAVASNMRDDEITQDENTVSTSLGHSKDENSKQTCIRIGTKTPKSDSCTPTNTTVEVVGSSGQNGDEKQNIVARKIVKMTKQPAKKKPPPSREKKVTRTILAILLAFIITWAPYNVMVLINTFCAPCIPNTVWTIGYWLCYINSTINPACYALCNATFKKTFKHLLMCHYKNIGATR
Method: Plasmid transfection for HEK293A cells (Thermo Fisher Scientific) was performed by combining 25 µl (volume is per 10-cm culture dish) of polyethylenimine solution (1 mg/mL) and a mixture of plasmids each encoding the large fragment (LgBiT)-containing the GαoA subunit (500 ng), the small fragment (SmBiT)-fused Gγ2 subunit with the C68S mutation (2.5 µg) and the untagged Gβ1 subunit (2.5 µg), along with a human, wild-type M2R (1 µg; containing N-terminal HA-derived signal sequence followed by the FLAG-epitope tag). After an incubation for one day, the transfected cells were harvested, pelleted with centrifugation, and suspended in 9 ml of Hank’s balanced saline solution (HBSS) containing 0.01% bovine serum albumin (BSA fatty acid–free grade, SERVA) and 5 mM HEPES (pH 7.4) (assay buffer). The cell suspension was dispensed in a white 96-well plate at a volume of 70 µl per well and mixed with 20 µl of 50 µM coelenterazine (Carbosynth) diluted in the assay buffer. […] Kinetics data points from 5 min to 10 min were averaged and normalized to the initial count and used as a G-protein dissociation index. For the mutant study, the cell culture and the transfection mixture were scaled down to a 6-cm dish (4 ml culture media) and the transfected cells were suspended in 4 ml of the assay buffer and seeded in the 96-well plate at a volume of 80 µL. The G-protein dissociation signals were fitted to a four-parameter sigmoidal concentration-response curve (GraphPad Prism8). For each experiment, we calculated Emax by normalizing Span to the LY2119620-free condition and ∆pEC50 by subtracting pEC50 of the LY2119620-free condition performed in parallel and used the values to denote allosteric modulator activity. Similarly, for the mutant study, we calculated ∆pEC50 by subtracting pEC50 of the WT (1:1) condition performed in parallel.

M2R and GoA = target: T2, M2R and GoA (Homo sapiens, UniProt P08172); experiment: GTPase-Glo assay (GTP turnover) with purified M2R and GoA; format: biochemical; settings: for Residual GTP (%): 90 min, normalized to GoA alone; for GTP-turnover, Fig. 1c (GTPase-Glo luminescence): 100 μM ACh or 10 μM Ixo, M2R-GoA
T2 construct: FLAG (N); 8xHis (C); made in house; host or cells: Sf9 insect cells (receptor)
Method: The receptors for GTPase-Glo^TM assay were expressed and purified as described above and frozen at −80 °C before use. […] The GTPase reaction was incubated at room temperature (22–25 °C) for different times (15–90 min). […] After incubation, 5 μL reconstituted 1xGTPase-Glo^TM Reagent (Promega) was added to the completed GTPase reaction, mixed briefly and incubated with shaking for 30 min at room temperature (22–25 °C) to convert the remaining GTP into ATP. Then 10 μL Detection Reagent (Promega) was added to the system and incubated for 5-10 min at room temperature (22–25 °C) to convert the ATP into luminescent signals. Luminescence intensity was quantified using a Multimode Plate Reader (PerkinElmer) luminescence counter.

M2R = target: T3, M2R (Homo sapiens, UniProt P08172); experiment: biochemical; format: binding; parameters: expressed in transfected cells
T3 sequence (P08172 1-466): T1 sequence (P08172 1-466 L129A) with A129L
Method: (§1) Purified M2R receptor was reconstituted into high-density lipoprotein (HDL) particles constituting apolipoprotein A1(APOA1) and mixture of POPG: POPC lipids with 3:2 (mol:mol)ratio as previously described. […] Membranes or HDL particles were separated from excess [^3H]-NMS by Whatman GF/B filters using a Brandel 48-well harvester. The bound radioligand were read on a liquid scintillation counter (MicroBeta Jet, PerkinElmer). Data were analyzed by GraphPad Prism 9.2.0.

human, wild-type M2R = target: T4, human, wild-type M2R (Homo sapiens, UniProt P08172); experiment: NanoBiT-G-protein (GoA) dissociation assay, wild-type M2R, HEK293A cells; format: cell-based; settings: for NanoBiT-GoA dissociation signal, Mean (Veh = 1.000): n = 4
T4 construct: expressed in transfected cells; host or cells: HEK293A
T4 sequence (P08172 1-466): T1 sequence (P08172 1-466 L129A) with A129L
Method: Plasmid transfection for HEK293A cells (Thermo Fisher Scientific) was performed by combining 25 µl (volume is per 10-cm culture dish) of polyethylenimine solution (1 mg/mL) and a mixture of plasmids each encoding the large fragment (LgBiT)-containing the GαoA subunit (500 ng), the small fragment (SmBiT)-fused Gγ2 subunit with the C68S mutation (2.5 µg) and the untagged Gβ1 subunit (2.5 µg), along with a human, wild-type M2R (1 µg; containing N-terminal HA-derived signal sequence followed by the FLAG-epitope tag). After an incubation for one day, the transfected cells were harvested, pelleted with centrifugation, and suspended in 9 ml of Hank’s balanced saline solution (HBSS) containing 0.01% bovine serum albumin (BSA fatty acid–free grade, SERVA) and 5 mM HEPES (pH 7.4) (assay buffer). The cell suspension was dispensed in a white 96-well plate at a volume of 70 µl per well and mixed with 20 µl of 50 µM coelenterazine (Carbosynth) diluted in the assay buffer. After 2 h incubation at room temperature, the plate was measured for baseline luminescence (SpectraMax L, Molecular Devices) and 10 µl of titrated concentrations of LY2119620 diluted in the assay buffer were added. […] Kinetics data points from 5 min to 10 min were averaged and normalized to the initial count and used as a G-protein dissociation index. […] The G-protein dissociation signals were fitted to a four-parameter sigmoidal concentration-response curve (GraphPad Prism8). For each experiment, we calculated Emax by normalizing Span to the LY2119620-free condition and ∆pEC50 by subtracting pEC50 of the LY2119620-free condition performed in parallel and used the values to denote allosteric modulator activity.

M2RFL_WT = target: T5, M2RFL_WT (Homo sapiens, UniProt P08172); experiment: [3H]-NMS competition binding (ACh competition, GoA titration), wild type full length M2R; parameters: unit not given here
T5 construct: made in house; host or cells: Sf9 membranes
T5 sequence (P08172 1-466): T1 sequence (P08172 1-466 L129A) with A129L
Method: as §1, with “9.2.0. […]” for “9.2.0.”
Data are given as mean
± SEM from 3 independent experiments.
M2RFL△9M_K383M and M2RFL_WT.
SEM from 3 independent experiments. […]

Mock = experiment: NanoBiT-GoA dissociation assay, Mock-transfected cells (control); format: cell-based

T2 sequence (P59768 2-68): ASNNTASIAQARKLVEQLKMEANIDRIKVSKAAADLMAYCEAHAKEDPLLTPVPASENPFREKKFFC
T2 sequence (P09471 2-354, further chain): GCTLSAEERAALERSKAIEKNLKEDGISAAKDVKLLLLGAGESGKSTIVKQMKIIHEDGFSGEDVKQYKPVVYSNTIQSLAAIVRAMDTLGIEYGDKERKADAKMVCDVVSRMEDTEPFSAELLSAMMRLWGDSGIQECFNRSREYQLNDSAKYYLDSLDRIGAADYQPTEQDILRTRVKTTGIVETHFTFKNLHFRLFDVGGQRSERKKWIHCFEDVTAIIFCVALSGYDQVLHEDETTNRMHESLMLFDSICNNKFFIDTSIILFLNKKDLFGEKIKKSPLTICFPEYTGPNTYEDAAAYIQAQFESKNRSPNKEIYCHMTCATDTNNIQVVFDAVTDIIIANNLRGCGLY
T2 sequence (P08172 whole entry): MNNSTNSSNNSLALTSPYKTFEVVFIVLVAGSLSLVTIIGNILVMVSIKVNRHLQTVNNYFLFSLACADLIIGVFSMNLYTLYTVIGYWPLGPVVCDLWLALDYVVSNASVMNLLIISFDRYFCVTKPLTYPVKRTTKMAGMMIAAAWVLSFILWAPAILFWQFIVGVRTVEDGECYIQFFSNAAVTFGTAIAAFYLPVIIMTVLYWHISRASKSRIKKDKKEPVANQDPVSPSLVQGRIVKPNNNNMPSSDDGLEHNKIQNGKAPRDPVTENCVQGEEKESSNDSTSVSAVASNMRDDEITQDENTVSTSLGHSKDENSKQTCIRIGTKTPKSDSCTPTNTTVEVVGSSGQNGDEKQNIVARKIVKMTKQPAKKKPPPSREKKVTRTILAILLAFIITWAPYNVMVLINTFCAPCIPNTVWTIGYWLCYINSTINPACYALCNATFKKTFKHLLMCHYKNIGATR
T2 sequence (P62873 whole entry, further chain): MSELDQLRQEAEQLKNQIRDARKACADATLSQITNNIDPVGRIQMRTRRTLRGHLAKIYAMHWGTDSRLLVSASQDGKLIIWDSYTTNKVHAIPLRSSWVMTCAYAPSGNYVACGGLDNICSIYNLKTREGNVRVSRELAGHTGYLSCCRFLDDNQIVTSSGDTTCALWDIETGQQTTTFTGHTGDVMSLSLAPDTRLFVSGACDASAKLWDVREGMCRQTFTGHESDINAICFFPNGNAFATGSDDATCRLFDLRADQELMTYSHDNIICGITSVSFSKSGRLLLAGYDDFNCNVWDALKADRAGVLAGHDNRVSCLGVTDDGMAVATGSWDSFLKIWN

## CC(=O)OCC[N+](C)(C)C [ACh, acetylcholine]
M2R L129^34.51A mutant
  ∆pEC50: -0.530 and -0.558 and -0.440
M2R L129^34.51A mutant; ACh Log [M] -4, n = 3
  NanoBiT-GoA dissociation signal, Mean (Veh = 1.000): 0.350
M2R L129^34.51A mutant; ACh Log [M] -5, n = 3
  NanoBiT-GoA dissociation signal, Mean (Veh = 1.000): 0.368
M2R L129^34.51A mutant; ACh Log [M] -6, n = 3
  NanoBiT-GoA dissociation signal, Mean (Veh = 1.000): 0.470
M2R L129^34.51A mutant; ACh Log [M] -8, n = 3
  NanoBiT-GoA dissociation signal, Mean (Veh = 1.000): 0.926
M2R L129^34.51A mutant; ACh Log [M] -9, n = 3
  NanoBiT-GoA dissociation signal, Mean (Veh = 1.000): 0.991
M2R L129^34.51A mutant; ACh Log [M] -10, n = 3
  NanoBiT-GoA dissociation signal, Mean (Veh = 1.000): 0.994
M2R and GoA; +DMSO
  Residual GTP (%): 45.3131% and 35.9349% and 31.3573% and 30.3217%
M2R and GoA; +LY2119620 (100 μM)
  Residual GTP (%): 63.4937% and 52.5673% and 44.2408% and 50.614% and 40.1818%
M2R and GoA; agonist-bound M2R
  GTP turnover rate and efficacy: much lower GTP turnover rate and efficacy than Ixo-bound M2R
M2R and GoA; time 15 min
  GTP-turnover, Fig. 1c (GTPase-Glo luminescence): 580068 and 653066 and 555333 and 703107
M2R and GoA; time 30 min
  GTP-turnover, Fig. 1c (GTPase-Glo luminescence): 338018 and 388059 and 371258 and 437553
M2R and GoA; time 45 min
  GTP-turnover, Fig. 1c (GTPase-Glo luminescence): 365372 and 350617 and 319511 and 370440
M2R and GoA; time 60 min
  GTP-turnover, Fig. 1c (GTPase-Glo luminescence): 469821 and 332109 and 488525 and 361230
M2R and GoA; time 90 min
  GTP-turnover, Fig. 1c (GTPase-Glo luminescence): 354237 and 250414 and 339305 and 252170
M2R; M2R in HDL particles
  increase of affinity on addition of GoA: ~ 65 fold
M2R; log[M] -4, without GoA
  competition curve data, Fig. 1b ([3H]-NMS binding): 5.782 and 5.65 and 7.077
M2R; log[M] -5, +GoA
  competition curve data, Fig. 1b ([3H]-NMS binding): 8.6818 and 10.1951 and 7.089
M2R; log[M] -5, without GoA
  competition curve data, Fig. 1b ([3H]-NMS binding): 30.6813 and 33.2587 and 33.4266
M2R; log[M] -6, +GoA
  competition curve data, Fig. 1b ([3H]-NMS binding): 19.1734 and 19.6734 and 19.2354
M2R; log[M] -6, without GoA
  competition curve data, Fig. 1b ([3H]-NMS binding): 75.6364 and 71.4046
M2R; log[M] -7, +GoA
  competition curve data, Fig. 1b ([3H]-NMS binding): 35.8423 and 48.5862 and 43.4886
M2R; log[M] -7, without GoA
  competition curve data, Fig. 1b ([3H]-NMS binding): 93.5585 and 94.8412 and 97.6703
M2R; log[M] -8, +GoA
  competition curve data, Fig. 1b ([3H]-NMS binding): 63.401 and 72.72 and 79.9283
M2R; log[M] -8, without GoA
  competition curve data, Fig. 1b ([3H]-NMS binding): 87.5165 and 90.6813 and 92.0839
M2R; log[M] -9, +GoA
  competition curve data, Fig. 1b ([3H]-NMS binding): 85.6233 and 86.2605 and 91.0793
M2R; log[M] -9, without GoA
  competition curve data, Fig. 1b ([3H]-NMS binding): 98.6534 and 93.3786 and 102.25
M2R; log[M] -10, +GoA
  competition curve data, Fig. 1b ([3H]-NMS binding): 98.2875 and 107.686 and 94.0263
M2R; log[M] -10, without GoA
  competition curve data, Fig. 1b ([3H]-NMS binding): 99.5165 and 100.667 and 99.8162
M2R; purified M2R reconstituted in HDL particles
  binding affinity lower than Ixo: ~ 90 fold
human, wild-type M2R; WT (1:1), reference
  ∆pEC50: 0.000
human, wild-type M2R; WT (1:1), ACh Log [M] -4
  NanoBiT-GoA dissociation signal, Mean (Veh = 1.000): 0.337
human, wild-type M2R; WT (1:1), ACh Log [M] -5
  NanoBiT-GoA dissociation signal, Mean (Veh = 1.000): 0.351
human, wild-type M2R; WT (1:1), ACh Log [M] -6
  NanoBiT-GoA dissociation signal, Mean (Veh = 1.000): 0.394
human, wild-type M2R; WT (1:1), ACh Log [M] -7
  NanoBiT-GoA dissociation signal, Mean (Veh = 1.000): 0.558
human, wild-type M2R; WT (1:1), ACh Log [M] -8
  NanoBiT-GoA dissociation signal, Mean (Veh = 1.000): 0.840
human, wild-type M2R; WT (1:1), ACh Log [M] -9
  NanoBiT-GoA dissociation signal, Mean (Veh = 1.000): 0.978
human, wild-type M2R; WT (1:2)
  ∆pEC50: -0.277 and -0.205 and -0.364 and -0.275
human, wild-type M2R; WT (1:2), ACh Log [M] -4
  NanoBiT-GoA dissociation signal, Mean (Veh = 1.000): 0.345
human, wild-type M2R; WT (1:2), ACh Log [M] -5
  NanoBiT-GoA dissociation signal, Mean (Veh = 1.000): 0.355
human, wild-type M2R; WT (1:2), ACh Log [M] -6
  NanoBiT-GoA dissociation signal, Mean (Veh = 1.000): 0.427
human, wild-type M2R; WT (1:2), ACh Log [M] -7
  NanoBiT-GoA dissociation signal, Mean (Veh = 1.000): 0.636
human, wild-type M2R; WT (1:2), ACh Log [M] -8
  NanoBiT-GoA dissociation signal, Mean (Veh = 1.000): 0.898
human, wild-type M2R; WT (1:2), ACh Log [M] -9
  NanoBiT-GoA dissociation signal, Mean (Veh = 1.000): 0.988
M2RFL_WT; log[M] (ACh) -3
  ACh competition curve data, Supplementary Fig. 4c: 7.417 and 5.223 and 6.047
M2RFL_WT; log[M] (ACh) -4
  ACh competition curve data, Supplementary Fig. 4c: 27.7888 and 31.3709 and 30.2311
M2RFL_WT; log[M] (ACh) -5
  ACh competition curve data, Supplementary Fig. 4c: 61.0434 and 71.3013 and 69.7784
M2RFL_WT; log[M] (ACh) -6
  ACh competition curve data, Supplementary Fig. 4c: 79.8736 and 96.1082 and 98.1674
M2RFL_WT; log[M] (ACh) -7
  ACh competition curve data, Supplementary Fig. 4c: 94.365 and 99.8819 and 105.753
M2RFL_WT; log[M] (ACh) -8
  ACh competition curve data, Supplementary Fig. 4c: 97.3725 and 89.5377 and 100.935
Mock; ACh Log [M] -4, n = 3
  NanoBiT-GoA dissociation signal, Mean (Veh = 1.000): 0.999
Mock; ACh Log [M] -5, n = 3
  NanoBiT-GoA dissociation signal, Mean (Veh = 1.000): 0.997
Mock; ACh Log [M] -6, n = 3
  NanoBiT-GoA dissociation signal, Mean (Veh = 1.000): 0.997
Mock; ACh Log [M] -7, n = 3
  NanoBiT-GoA dissociation signal, Mean (Veh = 1.000): 0.998
Mock; ACh Log [M] -8, n = 3
  NanoBiT-GoA dissociation signal, Mean (Veh = 1.000): 1.007
Mock; ACh Log [M] -9, n = 3
  NanoBiT-GoA dissociation signal, Mean (Veh = 1.000): 1.008
Mock; ACh Log [M] -10, n = 3
  NanoBiT-GoA dissociation signal, Mean (Veh = 1.000): 1.011
